Test results published in patent US20250092383A1, “COMPOUNDS AND METHODS FOR FBXO22-MEDIATED PROTEIN DEGRADATION” (Northwestern University, priority 2023, published 2025).
Each block holds one compound with its values, some of them ahead of it. Peptide text beside a SMILES is read from it. * marks the point of attachment. Cbz = O=C(OCc1ccccc1)*

Experiments:
Assay type in all cases: cell-based
[1] = target: T1, FKBP12 (mouse FBXO22) (UniProt P62942+Q78JE5); test: FKBP12 degradation in HEK293T cells expressing mouse FBXO22; details: HEK293T cells expressing mouse FBXO22 wildtype
T1 construct: expressed in transfected cells; host or cells: HEK293T
T1 sequence (P62942 2-108): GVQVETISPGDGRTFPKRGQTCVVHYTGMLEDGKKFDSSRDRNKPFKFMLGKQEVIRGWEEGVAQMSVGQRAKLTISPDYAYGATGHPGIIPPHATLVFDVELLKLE
T1 sequence (Q78JE5 whole entry): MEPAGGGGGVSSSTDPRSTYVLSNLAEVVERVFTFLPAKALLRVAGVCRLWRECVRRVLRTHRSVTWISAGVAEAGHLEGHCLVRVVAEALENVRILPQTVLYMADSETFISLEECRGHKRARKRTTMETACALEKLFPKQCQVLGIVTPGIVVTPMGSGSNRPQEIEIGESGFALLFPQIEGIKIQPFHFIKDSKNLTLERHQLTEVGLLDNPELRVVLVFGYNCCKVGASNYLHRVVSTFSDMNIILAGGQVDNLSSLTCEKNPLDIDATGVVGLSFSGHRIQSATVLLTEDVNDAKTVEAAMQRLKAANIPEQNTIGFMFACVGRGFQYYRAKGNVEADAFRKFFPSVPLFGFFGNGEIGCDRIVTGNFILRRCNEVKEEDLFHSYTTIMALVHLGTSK
T1 sequence (P63208 whole entry partner): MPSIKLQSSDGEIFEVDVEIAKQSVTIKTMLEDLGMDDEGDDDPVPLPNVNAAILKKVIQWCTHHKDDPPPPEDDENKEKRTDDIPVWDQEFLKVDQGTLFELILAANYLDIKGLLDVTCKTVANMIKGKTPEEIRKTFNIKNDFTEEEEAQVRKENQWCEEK
Source text: (§1) FIGS. 3A-3H show FBXO22 C227 and C228 are involved in 22-SLF-mediated degradation of FKBP12. […] Among 5,650 quantified IA-DTB-modified peptides, four cysteines were identified on FBXO22 (C83, C117, C228, and C365). […] Data are presented as the mean values (n=2 biological independent samples for DMSO treatment; n=3 biological independent samples for 22-SLF Treatment). […] The bag graph represents quantification of the FLAG-FKBP12/HSP90 protein content. Data are presented as mean values (n=2 biological independent samples). […] The bar graph represents quantification of the FLAG-FKBP12/HSP90 protein content. Data are presented as the mean values (n=2 biological independent samples).
Intriguingly, the peptide sequence containing the two consecutive cysteines (C227 and C228) is identical between human and mouse (FIG. 3f). To explore whether mouse FBXO22 can facilitate 22-SLF-induced FKBP12 degradation and if the conserved cysteines (C226 and C227 in mouse FBXO22) are pivotal, HEK293T cells expressing mouse FBXO22 wildtype, C226A, C227A, and C226AC227A, were generated.

[2] = target: FKBP12 (Homo sapiens, UniProt P62942); test: Western blot of FLAG-FKBP12 degradation in HEK293T cells expressing HA-FBXO22; parameters: expressed in transfected cells; host or cells: HEK293T; details: MG132 (1 μM), MLN4924 (1 μM), SLF (25 μM)
FKBP12, sequence (P62942 whole entry): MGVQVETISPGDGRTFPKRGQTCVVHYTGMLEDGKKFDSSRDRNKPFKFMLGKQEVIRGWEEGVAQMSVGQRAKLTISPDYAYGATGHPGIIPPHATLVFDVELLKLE
Description: The bar graph represents quantification of the FLAG-FKBP12/HSP90 protein content. Data are presented as the mean values±s.e.m. […] HEK293T cells expressing HA-FBXO22 were treated with 0.025-15 μM 22-SLF for 8 h. The graph represents quantification of the FLAG-FKBP12/HSP90 protein content. Data are presented as the mean values (n=2 biological independent samples). […] The bar graph represents quantification of the FLAG-FKBP12/HSP90 protein content. KO, knockout; WT, wild type. Data are presented as the mean values (n=2 biological independent samples). […] The bar graph represents quantification of the FLAG-FKBP12/HSP90 protein content. Data are presented as the mean values±s.e.m. […] The result is representative of two independent experiments with similar results. WCL, whole-cell lysate; IP, immunoprecipitate.
as §1
FIG. 11A-11B show the acrylamide variant of 22-SLF, 22a-SLF, induced the degradation of FKBP12. […] HEK293T cells expressing HA-FBXO22 were treated with 0.5, 1, or 2 μM of 22-SLF or 22a-SLF for 8 hours. The graph represents quantification of the FLAG-FKBP12/HSP90 protein content. Data are presented as mean values (n=2 biological independent samples).
Next, Western blot analysis was used to measure the degradation of FKBP12 induced by 22-SLF. To achieve this, FLAG-tagged FKBP12 and HA-tagged FBXO22 were stably overexpressed in HEK293T cells, followed by subjecting the cells to varying concentrations of 22-SLF. […] Moreover, 22-SLF's effect on FLAG-FKBP12 degradation was concentration-dependent (FIG. 2a). […] The rescue enabled by MLN4924 indicates the involvement of a Cullin-RING ligase (CRL) in the degradation process. This is consistent with FBXO22 belonging to SKP1-CUL1-F-box protein (SCF) ubiquitin ligase complexes, a subfamily of CRL. […] To provide a more comprehensive insight into 22-SLF-induced FKBP12 degradation, a dose-dependent degradation experiment using 11 concentrations of 22-SLF ranging from […] to 15 μM was conducted. This experiment enabled determination of two parameters, the Dmax value, which reached 89%, and the half-maximal degradation concentration (DC50) value, which measured at 0.5 μM (FIG. 2B). […] Collectively, this array of data supports the canonical mechanism of ligand-induced protein degradation. In this mechanism, 22-SLF orchestrates the recruitment of FBXO22 to FKBP12, culminating in the proteasomal degradation of FKBP12.
To identify the cysteine residue(s) in FBXO22 engaged with 22-SLF, HA-FBXO22-expressing HEK293T cells were treated with either DMSO or 22-SLF (2 μM, 2 hours). Using competitive cysteine-directed activity-based protein profiling (ABPP), a chemical proteomics for the measurement of target engagement, the degree of blockade of iodoacetamide-desthiobiotin (IA-DTB)-modified cysteines on FBXO22 was quantified. From a pool of 5,650 quantified IA-DTB-modified peptides, four cysteines on FBXO22 (C83, C117, C228, and C365) (FIG. 3a) were identified, with approximately 20% of FBXO22 C228 being blocked by 22-SLF treatment (FIG. 3b), indicating the potential interaction with this cysteine by 22-SLF. Consequently, C228 was mutated to alanine and HA-FBXO22 C228A-expressing HEK293T cells were generated (FIG. 3c). […]

[3] = target: T2, EML4-ALK fusion protein (Homo sapiens, UniProt Q8NEZ5+Q9HC35+Q9UM73); test: EML4-ALK degradation in H2228 wild-type and FBXO22-knockout cells; details: 1 and 2 μM, 24 h
T2 construct: endogenous in cells; host or cells: H2228 wild type and FBXO22 knockout
T2 sequence (Q9HC35+Q9UM73 fused): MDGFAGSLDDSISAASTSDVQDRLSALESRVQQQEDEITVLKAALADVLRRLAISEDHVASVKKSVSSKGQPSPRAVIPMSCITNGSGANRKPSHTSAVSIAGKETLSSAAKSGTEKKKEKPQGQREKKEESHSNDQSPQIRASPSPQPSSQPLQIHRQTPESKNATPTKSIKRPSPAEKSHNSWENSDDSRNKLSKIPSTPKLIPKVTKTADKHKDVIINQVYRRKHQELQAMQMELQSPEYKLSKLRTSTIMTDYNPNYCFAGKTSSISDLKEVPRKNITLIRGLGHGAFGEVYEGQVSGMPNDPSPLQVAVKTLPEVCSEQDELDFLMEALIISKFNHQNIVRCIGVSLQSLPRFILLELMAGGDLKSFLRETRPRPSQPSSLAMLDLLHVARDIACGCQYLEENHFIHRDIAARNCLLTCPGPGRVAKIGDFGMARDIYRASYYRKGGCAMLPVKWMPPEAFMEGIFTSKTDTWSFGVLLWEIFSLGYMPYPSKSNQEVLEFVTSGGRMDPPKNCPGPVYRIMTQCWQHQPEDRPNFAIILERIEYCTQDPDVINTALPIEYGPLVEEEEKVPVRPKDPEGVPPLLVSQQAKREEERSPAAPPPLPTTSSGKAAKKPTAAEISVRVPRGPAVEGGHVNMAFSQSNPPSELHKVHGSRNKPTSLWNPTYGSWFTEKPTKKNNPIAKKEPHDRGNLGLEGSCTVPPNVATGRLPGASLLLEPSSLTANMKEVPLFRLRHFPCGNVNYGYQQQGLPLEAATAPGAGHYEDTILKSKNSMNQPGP
T2 sequence (Q8NEZ5 whole entry, the tested form may be a part): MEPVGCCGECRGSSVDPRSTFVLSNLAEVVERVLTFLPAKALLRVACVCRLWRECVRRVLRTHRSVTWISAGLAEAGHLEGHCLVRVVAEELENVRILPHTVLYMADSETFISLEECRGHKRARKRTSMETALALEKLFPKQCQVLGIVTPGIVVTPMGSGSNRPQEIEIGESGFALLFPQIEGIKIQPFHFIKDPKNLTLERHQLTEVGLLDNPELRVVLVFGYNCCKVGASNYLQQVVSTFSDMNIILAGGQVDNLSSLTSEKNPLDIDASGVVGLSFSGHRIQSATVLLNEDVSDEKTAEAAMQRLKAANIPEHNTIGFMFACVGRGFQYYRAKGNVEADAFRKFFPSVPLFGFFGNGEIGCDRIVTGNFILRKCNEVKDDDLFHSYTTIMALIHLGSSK
T2 sequence (P63208 2-163 partner limits assumed): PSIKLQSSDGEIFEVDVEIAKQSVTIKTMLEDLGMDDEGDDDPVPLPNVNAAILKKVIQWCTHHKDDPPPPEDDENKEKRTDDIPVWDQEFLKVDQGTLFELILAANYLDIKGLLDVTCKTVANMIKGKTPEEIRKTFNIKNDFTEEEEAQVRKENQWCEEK
T2 sequence (Q13616 whole entry partner, the tested form may be a part): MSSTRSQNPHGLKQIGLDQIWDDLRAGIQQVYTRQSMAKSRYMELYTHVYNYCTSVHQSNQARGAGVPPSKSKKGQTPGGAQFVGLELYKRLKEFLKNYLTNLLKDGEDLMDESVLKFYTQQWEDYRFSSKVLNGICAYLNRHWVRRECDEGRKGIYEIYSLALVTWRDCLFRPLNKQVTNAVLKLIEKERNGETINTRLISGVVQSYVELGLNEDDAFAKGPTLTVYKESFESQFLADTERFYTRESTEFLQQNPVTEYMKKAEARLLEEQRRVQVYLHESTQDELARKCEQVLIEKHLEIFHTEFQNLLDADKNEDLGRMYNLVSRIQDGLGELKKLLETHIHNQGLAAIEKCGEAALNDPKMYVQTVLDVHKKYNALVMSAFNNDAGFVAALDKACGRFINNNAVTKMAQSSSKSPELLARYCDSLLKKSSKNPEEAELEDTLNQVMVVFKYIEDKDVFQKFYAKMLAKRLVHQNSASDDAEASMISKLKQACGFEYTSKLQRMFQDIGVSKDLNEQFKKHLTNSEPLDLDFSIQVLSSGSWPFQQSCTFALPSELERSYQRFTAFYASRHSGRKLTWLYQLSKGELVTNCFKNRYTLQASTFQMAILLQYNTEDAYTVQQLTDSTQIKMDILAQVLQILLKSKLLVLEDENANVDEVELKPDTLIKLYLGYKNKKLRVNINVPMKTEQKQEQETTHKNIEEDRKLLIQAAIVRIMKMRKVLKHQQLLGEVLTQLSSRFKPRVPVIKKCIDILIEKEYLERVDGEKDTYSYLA
T2 sequence (P62877 whole entry partner, the tested form may be a part): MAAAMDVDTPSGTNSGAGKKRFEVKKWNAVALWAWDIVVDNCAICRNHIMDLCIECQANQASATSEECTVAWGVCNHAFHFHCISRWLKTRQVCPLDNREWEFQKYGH
Source text: (§2) FIGS. 5A-5E show harnessing FBXO22 for the degradation of BRD4 and EML4-ALK. […] The bar graph represents quantification of the BRD4/β-actin protein content. Data are presented as the mean values (n=2 biological independent samples). […] Data are presented as the mean values (n=2 biological independent samples). […] The bar graph represents quantification of the EML4-ALK/β-actin protein content. Data are presented as the mean values (n=2 biological independent samples).
(§3) Next, the potential of FBXO22 to facilitate the degradation of additional proteins was investigated. Bromodomain-containing protein 4 (BRD4) was chosen due to its notable physiological role and the availability of a selective ligand, JQ1. The compound, 22-JQ1 (3) was synthesized by coupling the FBXO22 binding moiety to JQ1 (FIG. 5a). […] Subsequently, a global proteomic analysis was performed in A549 wild-type and FBXO22-knockout cells treated with 22-JQ1. […] 22-TAE incorporates the FBXO22 binding moiety coupled with a defined anaplastic lymphoma kinase (ALK) ligand (FIG. 5d). FBXO22 knockout was generated in H2228, a non-small cell lung cancer cell line expressing the echinoderm microtubule-associated protein-like 4 (EML4)-ALK fusion protein.

[4] = target: T3, BRD4 (Homo sapiens, UniProt O60885); test: Global proteomic analysis in A549 wild-type and FBXO22-knockout cells treated with 22-JQ1; details: 2 μM, 24 h
T3 construct: endogenous in cells; host or cells: A549 wild type and FBXO22 knockout
Source text: as §2, §3

[5] = target: T3, BRD4; test: BRD4 degradation in A549 wild-type and FBXO22-knockout cells (western blot); details: 1 and 2 μM, 24 h
Source text: as §2, §3

- Blockade of 22-SLF-induced FKBP12 degradation, mouse FBXO22 [1]: blocked
- Blockade of 22-SLF-induced loss of FLAG-FKBP12 expression [2]: blocked
Compound: NS(=O)(=O)OC[C@@H]1C[C@@H](n2ccc3c(N[C@H]4CCc5ccccc54)ncnc32)C[C@@H]1O [MLN4924, reference compound]

Compound: CC(C)C[C@@H](C=O)NC(=O)[C@H](CC(C)C)NC(=O)[C@H](CC(C)C)NC(=O)OCc1ccccc1 [MG132, reference compound] (Cbz-Leu-Leu-Leu-aldehyde)
- Blockade of 22-SLF-induced FKBP12 degradation, mouse FBXO22 [1]: blocked
- Blockade of 22-SLF-induced loss of FLAG-FKBP12 expression [2]: blocked

- EML4-ALK degradation, FBXO22-knockout H2228 cells [3]: no such degradation was observed
Compound: COc1cc(N2CCN(CCOCCOCCN(C(=O)CCl)C(C(=O)NCc3ccccc3)c3nc4ccccc4s3)CC2)ccc1Nc1ncc(Cl)c(Nc2ccccc2S(=O)(=O)C(C)C)n1 (stereo not drawn) [22-TAE]
- EML4-ALK degradation, H2228 wild-type cells [3]: induced the degradation of EML4-ALK fusion protein

- BRD4 degradation, A549 FBXO22 knockout cells [5]: abolished upon FBXO22 knockout
- BRD4 degradation, A549 wild-type cells [5]: promoted the degradation of BRD4
Compound: Cc1sc2c(c1C)C(c1ccc(Cl)cc1)=N[C@@H](CC(=O)NCCCOCCOCCOCCCN(C(=O)CCl)C(C(=O)NCc1ccccc1)c1nc3ccccc3s1)c1nnc(C)n1-2 (stereo partly drawn) [22-JQ1]
- BRD4 degradation in global proteomics [4]: potent degradation of BRD4 in A549 wild-type but not FBXO22-knockout cells
